Values joined by “and” are separate entries in the source; they are usually repeats but may differ in a detail not shown here. Identical values can stand only once.
Assays:
[1] = molecular target: T1, Replicase polyprotein 1ab (Severe acute respiratory syndrome coronavirus 2, UniProt P0DTD1); experiment: SARS-CoV-2 in Calu-3
Description: Calu-3 2B4 cells were adsorbed with MOI 0.1 PFU/cell of SARS-CoV-2 (2019-nCoV/USA-WA1/2020 strain) at 37°C. Plates were manually rocked every 10 min to redistribute the inoculum. After 30 min, virus inoculum was removed, cells were washed with Phosphate buffered saline (PBS) once to remove unbound virus, medium containing NHC or vehicle control (DMSO) was added back onto the cells, and cells were incubated for 72 hours at 37°C.

[2] = molecular target: T1, Replicase polyprotein 1ab; experiment: SARS-CoV-2 in Vero E6
Description: Vero E6 cells were plated at 20,000 cells/well in a 96-well plate. 24hr later, medium containing a dose response of NHC was added concurrent with SARS-CoV-2 (2019-nCoV/USA-WA1/2020 strain) at an MOI of 0.05. 48 hours post infection, cell viability was measured by CellTiter Glo assay.

O=c1nc(NO)ccn1[C@@H]1O[C@H](CO)[C@@H](O)[C@H]1O [NHC]
IC50 [1]: 0.08 µM and 0.09 µM
IC50 [2]: 0.3 µM
